Data set [1] in a line: Resistance index, ratio of IC50 for chloroquine resistant Plasmodium falciparum K1 infected in human erythrocytes to IC50 for chloroquine sensitive Plasmodium falciparum 3D7 infected in human erythrocytes. The class given is functional.
The nature of data set [2]: Selectivity index, ratio of CC50 for monkey kidney VERO cells to IC50 for chloroquine sensitive Plasmodium falciparum 3D7 infected in human erythrocytes. It counts as functional.
In data set [3] the test system is Plasmodium falciparum. Put plainly: Antiplasmodial activity against chloroquine sensitive Plasmodium falciparum 3D7 infected in human erythrocytes incubated for 72 hrs by SYBR Green1-based fluorescence analysis. It counts as functional, organism-based. As to conditions: 3D7, 72 h.
Data set [4] has as its system Plasmodium falciparum. Put plainly: Antiplasmodial activity against chloroquine resistant Plasmodium falciparum K1 infected in human erythrocytes incubated for 72 hrs by SYBR Green1-based fluorescence analysis. It counts as functional, organism-based. The conditions noted are these: K1, 72 h.
A short description of data set [5]: Selectivity index, ratio of CC50 for monkey kidney VERO cells to IC50 for chloroquine resistant Plasmodium falciparum K1 infected in human erythrocytes. It counts as functional.
Data set [6] can be described thus: Cytotoxicity against monkey kidney Vero cells by resazurin assay. The class given is cell-based. As to conditions: chlorocebus sabaeus. For orientation: Alamar Blue is a resazurin reagent that responds to reducing activity.
For data set [7], the system named is Plasmodium yoelii nigeriensis. Put plainly: Antiplasmodial activity against multidrug-resistant Plasmodium yoelii nigeriensis infected in Swiss mouse assessed as suppression of parasitaemia at 100 mg/kg, po for 4 days by Geimsa-staining based analysis. It counts as functional. As to conditions: 96 h.
The next data set deals with Mus musculus. Put plainly: Toxicity in multidrug-resistant Plasmodium yoelii nigeriensis infected Swiss mouse assessed as mouse survival at 100 mg/kg/day, po for 4 days. The class given is organism-based. As to conditions: in vivo, 96 h.

Structures are written as SMILES.

Usually IC50 stands for the concentration that gives 50% inhibition. The CC50 is the concentration at which the toxic effect on the cells reaches its halfway point. By inhibition in vivo is commonly meant the percentage by which the read-out fell short of the control.

As to `OC(CNc1ccc(Br)cc1)(c1ccc(Cl)cc1)c1nnn(Cc2ccccc2)c1-c1ccc(Cl)cc1` (stereo not drawn), the “Ratio IC50” value in data set [1] was 0.88. The “Ratio CC50/IC50” value in data set [2] was >314.4; in data set [5], >354.6. Moreover, the IC50 was 1590 nM in the data set on Plasmodium falciparum [3] and 1410 nM in the data set with Plasmodium falciparum [4]. Besides, the CC50 in data set [6] was > 500000 nM.
With `OC(CNc1ccc(I)cc1)(c1ccc(Cl)cc1)c1nnn(Cc2ccccc2)c1-c1ccc(Cl)cc1` (stereo not drawn), the “Ratio IC50” value in data set [1] was 0.99. Besides, the “Ratio CC50/IC50” value in data set [2] was >337.83; in data set [5], >340.1. Further, the IC50 with Plasmodium falciparum [3] turned out to be 1480 nM; in the data set on Plasmodium falciparum [4], 1470 nM. Further, the CC50 in data set [6] is > 500000 nM.
Consider `Cc1ccc(NCC(O)(c2ccc(Br)cc2)c2nnn(Cc3ccccc3)c2-c2ccccc2)cc1C` (stereo not drawn), for which, in data set [1], the “Ratio IC50” value worked out at 1.27. The “Ratio CC50/IC50” value in data set [2] is given as >183.8; in data set [5] it was >143.6. The figures for the IC50 in the data set on Plasmodium falciparum [3] and in the data set with Plasmodium falciparum [4] were 2720 nM and 3480 nM, respectively. Further, the CC50 in data set [6] is > 500000 nM.
Turning to `Cc1ccc(NCC(O)(c2ccc(Cl)cc2)c2nnn(Cc3ccccc3)c2-c2ccccc2)cc1C` (stereo not drawn), the “Ratio IC50” value in data set [1] came to 1.04. For the same compound, the “Ratio CC50/IC50” value in data set [2] was >193.79; in data set [5], >185.18. The IC50 with Plasmodium falciparum [3] was found to be 2580 nM; in the data set on Plasmodium falciparum [4], 2700 nM. In addition, the CC50 in data set [6] was > 500000 nM.
As to `Cc1ccc(NCC(O)(c2ccc(Cl)cc2)c2nnn(Cc3ccccc3)c2-c2ccc(F)cc2)cc1C` (stereo not drawn), the “Ratio IC50” value in data set [1] was 1.04. Also, the “Ratio CC50/IC50” value in data set [2] is on record as >187.26; in data set [5], >178.57. Besides, the IC50 with Plasmodium falciparum [3] was 2670 nM; in the data set on Plasmodium falciparum [4] it was 2800 nM. Further, the 50% cytotoxic concentration (CC50) in data set [6] was > 500000 nM.
As for `OC(CNc1ccccc1Br)(c1ccc(Cl)cc1)c1nnn(Cc2ccccc2)c1-c1ccc(Br)cc1` (stereo not drawn), the “Ratio IC50” value in data set [1] was found to be 0.74. In addition, the “Ratio CC50/IC50” value in data set [2] is >43.21; in data set [5], >58.07. The IC50 in the data set with Plasmodium falciparum [3] is 11600 nM; in the data set with Plasmodium falciparum [4], 8610 nM. In addition, the CC50 in data set [6] was > 500000 nM.
As to `OC(CNc1ccc(Br)cc1)(c1ccc(Cl)cc1)c1nnn(Cc2ccccc2)c1-c1ccc(Br)cc1` (stereo not drawn), the “Ratio IC50” value in data set [1] came out at 2.45. Moreover, the “Ratio CC50/IC50” value in data set [2] is listed as >574.71; in data set [5], >233.64. Besides, in data set [7], the inhibition in vivo at 100 mg/kg stood at 27.2%. Also, the figures for the IC50 in the data set with Plasmodium falciparum [3] and in the data set with Plasmodium falciparum [4] were 870 nM and 2040 nM, respectively. For the same compound, the Activity result in the data set on Mus musculus is reported as “Non-toxic”. Further, the CC50 in data set [6] was > 500000 nM.
Consider `OC(CNc1ccc(F)cc1)(c1ccc(Cl)cc1)c1nnn(Cc2ccccc2)c1-c1ccccc1` (stereo not drawn), for which, in data set [1], the “Ratio IC50” value came out at 1.07. Also, the “Ratio CC50/IC50” value is listed as >151.05 in data set [2] and >140.05 in data set [5]. In addition, the IC50 worked out at 3310 nM in the data set on Plasmodium falciparum [3] and 3570 nM with Plasmodium falciparum [4]. The CC50 in data set [6] was > 500000 nM.
With `OC(CNc1ccc(F)cc1)(c1ccc(Cl)cc1)c1nnn(Cc2ccccc2)c1-c1ccc(Br)cc1` (stereo not drawn), the “Ratio IC50” value in data set [1] was 1. In addition, the “Ratio CC50/IC50” value in data set [2] is on record as >155.76; in data set [5], >154.79. The IC50 in the data set with Plasmodium falciparum [3] was determined as 3210 nM; with Plasmodium falciparum [4], 3230 nM. The CC50 in data set [6] was > 500000 nM.
`Cc1ccc(C(O)(CNc2ccc(C)c(C)c2)c2nnn(Cc3ccccc3)c2-c2ccc(Cl)cc2)cc1` (stereo not drawn): the “Ratio IC50” value in data set [1] was 1.51. For the same compound, the entries for the “Ratio CC50/IC50” value in data set [2] and in data set [5] were >280.89 and >185.87, respectively. For the same compound, the IC50 was 1780 nM in the data set on Plasmodium falciparum [3] and 2690 nM in the data set with Plasmodium falciparum [4]. In addition, the CC50 in data set [6] is > 500000 nM.
With `OC(CNc1ccccc1Br)(c1ccc(Cl)cc1)c1nnn(Cc2ccccc2)c1-c1ccc(F)cc1` (stereo not drawn), in data set [1], the “Ratio IC50” value was determined as 0.93. For the same compound, the “Ratio CC50/IC50” value in data set [2] is given as >55; in data set [5], >59.1. Moreover, the IC50 in the data set with Plasmodium falciparum [3] is 9090 nM; in the data set on Plasmodium falciparum [4], 8460 nM. Moreover, in data set [6], the CC50 was > 500000 nM.
With `OC(CNc1ccc(Cl)cc1)(c1ccc(Cl)cc1)c1nnn(Cc2ccccc2)c1-c1ccc(F)cc1` (stereo not drawn), the “Ratio IC50” value in data set [1] is listed as 0.72. In addition, the “Ratio CC50/IC50” value in data set [2] is >175.43; in data set [5] it was >242.71. Besides, the IC50 was determined as 2850 nM with Plasmodium falciparum [3] and 2060 nM in the data set on Plasmodium falciparum [4]. The cytotoxic concentration (CC50) in data set [6] is > 500000 nM.
For the compound `Cc1ccc(NCC(O)(c2ccc(Cl)cc2)c2nnn(Cc3ccccc3)c2-c2ccc(Cl)cc2)cc1C` (stereo not drawn), in data set [1], the “Ratio IC50” value is given as 1.41. Also, the “Ratio CC50/IC50” value is given as 183.15 in data set [2] and 195.31 in data set [5]. Besides, the IC50 in the data set on Plasmodium falciparum [3] came to 2240 nM; with Plasmodium falciparum [4], 3180 nM. For the same compound, the CC50 in data set [6] is > 500000 nM.
For `OC(CNc1ccc(Br)cc1)(c1ccc(Cl)cc1)c1nnn(Cc2ccccc2)c1-c1ccccc1` (stereo not drawn), the “Ratio IC50” value in data set [1] came out at 0.95. Besides, the “Ratio CC50/IC50” value in data set [2] is >256.41; in data set [5] it was >267.37. Besides, the IC50 in the data set on Plasmodium falciparum [3] came out at 1950 nM; with Plasmodium falciparum [4], 1870 nM. The CC50 in data set [6] was > 500000 nM.
For `COc1cc(NCC(O)(c2ccc(Cl)cc2)c2nnn(Cc3ccccc3)c2-c2ccc(Cl)cc2)ccc1Br` (stereo not drawn), the “Ratio IC50” value in data set [1] was determined as 0.92. For the same compound, the “Ratio CC50/IC50” value is >303.3 in data set [2] and >326.29 in data set [5]. Moreover, the 50% inhibitory concentration (IC50) worked out at 1650 nM with Plasmodium falciparum [3] and 1530 nM with Plasmodium falciparum [4]. Also, the CC50 in data set [6] is > 500000 nM.
Consider `CC(C)c1ccc(-c2c(C(O)(CNc3ccc(F)cc3)c3ccc(Cl)cc3)nnn2Cc2ccccc2)cc1` (stereo not drawn), for which, in data set [1], the “Ratio IC50” value amounted to 1.05. The figures for the “Ratio CC50/IC50” value in data set [2] and in data set [5] were >316.45 and >299.4, respectively. The IC50 with Plasmodium falciparum [3] is 1580 nM; in the data set with Plasmodium falciparum [4], 1670 nM. The CC50 in data set [6] is > 500000 nM.
For the compound `OC(CNc1ccc(F)cc1)(c1ccc(Br)cc1)c1nnn(Cc2ccccc2)c1-c1ccccc1` (stereo not drawn), the “Ratio IC50” value in data set [1] was 1.69. In addition, the “Ratio CC50/IC50” value in data set [2] is listed as >184.5; in data set [5], >108.9. The IC50 turned out to be 2710 nM in the data set on Plasmodium falciparum [3] and 4590 nM in the data set on Plasmodium falciparum [4]. In addition, the CC50 in data set [6] was > 500000 nM.
With `OC(CNc1ccc2c(c1)OCO2)(c1ccc(Cl)cc1)c1nnn(Cc2ccccc2)c1-c1ccc(Cl)cc1` (stereo not drawn), the “Ratio IC50” value in data set [1] came to 0.93. Moreover, the “Ratio CC50/IC50” value is given as >183.1 in data set [2] and >195.3 in data set [5]. For the same compound, the IC50 in the data set on Plasmodium falciparum [3] was 2730 nM; in the data set with Plasmodium falciparum [4] it was 2560 nM. The CC50 in data set [6] is > 500000 nM.
In the case of `OC(CNc1ccc(Br)cc1)(c1ccc(Cl)cc1)c1nnn(Cc2ccc(Br)cc2)c1-c1ccc(Cl)cc1` (stereo not drawn), in data set [1], the “Ratio IC50” value was 0.69. For the same compound, the “Ratio CC50/IC50” value is reported as >206.61 in data set [2] and >297.61 in data set [5]. The IC50 in the data set with Plasmodium falciparum [3] is 2420 nM; in the data set with Plasmodium falciparum [4] it was 1680 nM. The CC50 in data set [6] is > 500000 nM.
For the compound `CCN(CC)CCCC(C)Nc1ccnc2cc(Cl)ccc12` (stereo not drawn) [CHLOROQUINE PHOSPHATE], in data set [6], the CC50 is > 500000 nM.
With `OC(CNc1ccc(F)cc1)(c1ccc(Cl)cc1)c1nnn(Cc2ccccc2)c1-c1ccc(F)cc1` (stereo not drawn), in data set [1], the “Ratio IC50” value came to 0.85. In addition, the “Ratio CC50/IC50” value is >129.19 in data set [2] and >151.97 in data set [5]. For the same compound, the IC50 in the data set on Plasmodium falciparum [3] is 3870 nM; in the data set with Plasmodium falciparum [4], 3290 nM. Also, in data set [6], the CC50 was > 500000 nM.

The record behind these values is ChEMBL document CHEMBL3758173, “Identification of β-Amino alcohol grafted 1,4,5 trisubstituted 1,2,3-triazoles as potent antimalarial agents” (Eur J Med Chem, 2016).
